Results taken from patent US20220143198A1, “COMPOSITIONS AND METHODS RELATED TO TETHERED KETHOXAL DERIVATIVES” (The University of Chicago, priority 2019, published 2022).

Columns and labels:
guanosine [1] = experiment: Reactivity of kethoxal derivatives with guanosine (conversion rates of guanosine); format: biochemical
guanosine [2] = experiment: Reversibility of kethoxal derivatives using GTP for competition (LCMS of free guanosine); format: physicochemical; conditions: 1:1 ratio
[3] = pH = 7.0, 10 min, excess GTP added after 10 min
[4] = pH = 7.0, 2 h, excess GTP competitor
[5] = pH = 7.0, 24 h, excess GTP competitor
[6] = pH = 7.8, S1:S2 = 2:1 (S1 guanosine, S2 kethoxal derivative)

CC(C(=O)C=O)N(C)C(=O)CN=[N+]=[N-] (centres unmarked) [drawing 40]
Conversion rate of guanosine (guanosine [1]; pH = 7.8, S1:S2 = 1:1): 40.2% | Conversion rate of guanosine (guanosine [1]; pH = 7.8, S1:S2 = 1:2): 66.7% | Conversion rate of guanosine (guanosine [1]; pH = 7.8, S1:S2 = 1:3): 74.9% | Conversion rate of guanosine (guanosine [1]; pH = 7.8, S1:S2 = 1:5): 83.2%

[N-]=[N+]=NCCCC(=O)C=O [drawing 85]
Conversion of guanosine under competition condition (guanosine [2]; [3]): 46.2% | Conversion of guanosine under competition condition (guanosine [2]; [4]): 21.0% | Conversion of guanosine under competition condition (guanosine [2]; [5]): 22.1%

[N-]=[N+]=NCCOC(F)(F)C(=O)C=O [drawing 59]
Conversion rate of guanosine (guanosine [1]; pH = 7.0, S1:S2 = 1:0): 9.8% | Conversion rate of guanosine (guanosine [1]; pH = 7.0, S1:S2 = 1:1): 1.4% | Conversion rate of guanosine (guanosine [1]; pH = 7.0, S1:S2 = 1:2): 1.9% | Conversion rate of guanosine (guanosine [1]; pH = 7.0, S1:S2 = 1:4): 3.8% | Conversion rate of guanosine (guanosine [1]; pH = 7.0, S1:S2 = 2:1): 0%

O=CC(=O)c1ccc([N+](=O)[O-])cc1
Conversion of guanosine under competition condition (guanosine [2]; [3]): 48.0% | Conversion of guanosine under competition condition (guanosine [2]; [4]): 13.5%

[N-]=[N+]=NCCOC(F)C(=O)C=O (centres unmarked) [drawing 58]
Conversion rate of guanosine (guanosine [1]; pH = 7.0, S1:S2 = 1:0): 24.7% | Conversion rate of guanosine (guanosine [1]; pH = 7.0, S1:S2 = 1:1): 6.4% | Conversion rate of guanosine (guanosine [1]; pH = 7.0, S1:S2 = 1:2): 8.2% | Conversion rate of guanosine (guanosine [1]; pH = 7.0, S1:S2 = 1:4): 16.5% | Conversion rate of guanosine (guanosine [1]; pH = 7.0, S1:S2 = 2:1): 3.2%

CC(C(=O)C=O)N(C)C(=O)CN=[N+]=[N-] (centres unmarked) [drawing 86]
Conversion of guanosine under competition condition (guanosine [2]; [3]): 41.8% | Conversion of guanosine under competition condition (guanosine [2]; [4]): 26.1% | Conversion of guanosine under competition condition (guanosine [2]; [5]): 23.4%

[N-]=[N+]=NCCOCC(=O)C=O [drawing 33]
Conversion rate of guanosine (guanosine [1]; pH = 7.8, S1:S2 = 1:1): 78.6% | Conversion rate of guanosine (guanosine [1]; pH = 7.8, S1:S2 = 1:2): 95.4% | Conversion rate of guanosine (guanosine [1]; [6]): 51.3%

CC(C)(OCCN=[N+]=[N-])C(=O)C=O [drawing 32]
Conversion rate of guanosine (guanosine [1]; pH = 7.8, S1:S2 = 1:1): 81.6% | Conversion rate of guanosine (guanosine [1]; pH = 7.8, S1:S2 = 1:2): 97.4% | Conversion rate of guanosine (guanosine [1]; [6]): 51.3%

[N-]=[N+]=NCCCC(=O)C=O [drawing 39]
Conversion rate of guanosine (guanosine [1]; pH = 7.8, S1:S2 = 1:1): 48.0% | Conversion rate of guanosine (guanosine [1]; pH = 7.8, S1:S2 = 1:2): 70.5% | Conversion rate of guanosine (guanosine [1]; pH = 7.8, S1:S2 = 1:3): 88.9% | Conversion rate of guanosine (guanosine [1]; pH = 7.8, S1:S2 = 1:5): 89.2% | Conversion rate of guanosine (guanosine [1]; [6]): 23.8%

CC(OCCN=[N+]=[N-])C(=O)C=O (centres unmarked) [drawing 31]
Conversion rate of guanosine (guanosine [1]; pH = 7.8, S1:S2 = 1:1): 86.9% | Conversion rate of guanosine (guanosine [1]; pH = 7.8, S1:S2 = 1:2): 97.4% | Conversion rate of guanosine (guanosine [1]; [6]): 51.6%

CC(Br)C(=O)C=O (centres unmarked) [drawing 51]
Conversion rate of guanosine (guanosine [1]; pH = 7.0, S1:S2 = 1:1): 40.4% | Conversion rate of guanosine (guanosine [1]; pH = 7.0, S1:S2 = 1:2): 81.2% | Conversion rate of guanosine (guanosine [1]; pH = 7.0, S1:S2 = 2:1): 22.4%

CC(Br)C(=O)C=O (centres unmarked) [drawing 36]
Conversion rate of guanosine (guanosine [1]; pH = 7.8, S1:S2 = 1:1): 67.2% | Conversion rate of guanosine (guanosine [1]; pH = 7.8, S1:S2 = 1:2): 89.9% | Conversion rate of guanosine (guanosine [1]; pH = 7.8, S1:S2 = 1:3): 92.2% | Conversion rate of guanosine (guanosine [1]; [6]): 35.8%

[N-]=[N+]=NCCOCCC(=O)C=O [drawing 41]
Conversion rate of guanosine (guanosine [1]; pH = 7.8, S1:S2 = 1:1): 41.1% | Conversion rate of guanosine (guanosine [1]; pH = 7.8, S1:S2 = 1:2): 60.0% | Conversion rate of guanosine (guanosine [1]; pH = 7.8, S1:S2 = 1:3): 66.4% | Conversion rate of guanosine (guanosine [1]; pH = 7.8, S1:S2 = 1:5): 73.6% | Conversion rate of guanosine (guanosine [1]; [6]): 25.2%

[N-]=[N+]=NCCOCCC(=O)C=O [drawing 56]
Conversion rate of guanosine (guanosine [1]; pH = 7.0, S1:S2 = 1:1): 38.3% | Conversion rate of guanosine (guanosine [1]; pH = 7.0, S1:S2 = 1:2): 49.6% | Conversion rate of guanosine (guanosine [1]; pH = 7.0, S1:S2 = 2:1): 16.8%

CC(C)(OCCN=[N+]=[N-])C(=O)C=O [drawing 47]
Conversion rate of guanosine (guanosine [1]; pH = 7.0, S1:S2 = 1:1): 46.7% | Conversion rate of guanosine (guanosine [1]; pH = 7.0, S1:S2 = 1:2): 76.6% | Conversion rate of guanosine (guanosine [1]; pH = 7.0, S1:S2 = 2:1): 23.6%

CC(C(=O)C=O)N(C)C(=O)CN=[N+]=[N-] (centres unmarked) [drawing 55]
Conversion rate of guanosine (guanosine [1]; pH = 7.0, S1:S2 = 1:1): 46.2% | Conversion rate of guanosine (guanosine [1]; pH = 7.0, S1:S2 = 1:2): 64.2% | Conversion rate of guanosine (guanosine [1]; pH = 7.0, S1:S2 = 1:4): 84.7% | Conversion rate of guanosine (guanosine [1]; pH = 7.0, S1:S2 = 2:1): 20.4%

CC(OC(=O)CN=[N+]=[N-])C(=O)C=O (centres unmarked) [drawing 49]
Conversion rate of guanosine (guanosine [1]; pH = 7.0, S1:S2 = 1:1): 50.1% | Conversion rate of guanosine (guanosine [1]; pH = 7.0, S1:S2 = 1:2): 81.3% | Conversion rate of guanosine (guanosine [1]; pH = 7.0, S1:S2 = 2:1): 29.5%

CC(OCCN=[N+]=[N-])C(=O)C=O (centres unmarked) [drawing 46]
Conversion rate of guanosine (guanosine [1]; pH = 7.0, S1:S2 = 1:1): 70.6% | Conversion rate of guanosine (guanosine [1]; pH = 7.0, S1:S2 = 1:2): 93.7% | Conversion rate of guanosine (guanosine [1]; pH = 7.0, S1:S2 = 2:1): 39.6%

[N-]=[N+]=NCCCC(=O)C=O [drawing 54]
Conversion rate of guanosine (guanosine [1]; pH = 7.0, S1:S2 = 1:1): 40.8% | Conversion rate of guanosine (guanosine [1]; pH = 7.0, S1:S2 = 1:2): 63.2% | Conversion rate of guanosine (guanosine [1]; pH = 7.0, S1:S2 = 1:4): 87.2% | Conversion rate of guanosine (guanosine [1]; pH = 7.0, S1:S2 = 2:1): 19.8%

CC(N=[N+]=[N-])C(=O)C=O (centres unmarked) [drawing 35]
Conversion rate of guanosine (guanosine [1]; pH = 7.8, S1:S2 = 1:1): 71.2% | Conversion rate of guanosine (guanosine [1]; pH = 7.8, S1:S2 = 1:2): 90.3% | Conversion rate of guanosine (guanosine [1]; pH = 7.8, S1:S2 = 1:3): 96.5% | Conversion rate of guanosine (guanosine [1]; [6]): 38.0%

O=CC(=O)c1ccccc1 [drawing 57]
Conversion rate of guanosine (guanosine [1]; pH = 7.0, S1:S2 = 1:1): 22.5% | Conversion rate of guanosine (guanosine [1]; pH = 7.0, S1:S2 = 1:2): 33.2% | Conversion rate of guanosine (guanosine [1]; pH = 7.0, S1:S2 = 1:4): 51.5% | Conversion rate of guanosine (guanosine [1]; pH = 7.0, S1:S2 = 2:1): 9.9%

[N-]=[N+]=NCCOCC(=O)C=O [drawing 48]
Conversion rate of guanosine (guanosine [1]; pH = 7.0, S1:S2 = 1:1): 52.2% | Conversion rate of guanosine (guanosine [1]; pH = 7.0, S1:S2 = 1:2): 79.2% | Conversion rate of guanosine (guanosine [1]; pH = 7.0, S1:S2 = 2:1): 30.3%

[N-]=[N+]=NCCOC(F)C(=O)C=O (centres unmarked) [drawing 43]
Conversion rate of guanosine (guanosine [1]; pH = 7.8, S1:S2 = 1:1): 30.9% | Conversion rate of guanosine (guanosine [1]; pH = 7.8, S1:S2 = 1:2): 49.6% | Conversion rate of guanosine (guanosine [1]; pH = 7.8, S1:S2 = 1:3): 69.5% | Conversion rate of guanosine (guanosine [1]; pH = 7.8, S1:S2 = 1:5): 76.7% | Conversion rate of guanosine (guanosine [1]; pH = 7.8, S1:S2 = 1:10): 81.6%

O=CC(=O)Cc1ccccc1 [drawing 60]
Conversion rate of guanosine (guanosine [1]; pH = 7.0, S1:S2 = 1:1): 22.5% | Conversion rate of guanosine (guanosine [1]; pH = 7.0, S1:S2 = 1:2): 30.4% | Conversion rate of guanosine (guanosine [1]; pH = 7.0, S1:S2 = 2:1): 9.0%

[N-]=[N+]=NCCOC(F)(F)C(=O)C=O [drawing 44]
Conversion rate of guanosine (guanosine [1]; pH = 7.8, S1:S2 = 1:1): 14.7% | Conversion rate of guanosine (guanosine [1]; pH = 7.8, S1:S2 = 1:2): 28.9% | Conversion rate of guanosine (guanosine [1]; pH = 7.8, S1:S2 = 1:3): 38.7% | Conversion rate of guanosine (guanosine [1]; pH = 7.8, S1:S2 = 1:5): 63.1% | Conversion rate of guanosine (guanosine [1]; [6]): 8.5%

O=CC(=O)c1ccccc1 [phenyl-substituted kethoxal derivative]
Conversion rate of guanosine (guanosine [1]; pH = 7.0, S1:S2 = 1:1): 18.8% | Conversion rate of guanosine (guanosine [1]; pH = 7.0, S1:S2 = 1:2): 37.6% | Conversion rate of guanosine (guanosine [1]; pH = 7.0, S1:S2 = 1:3): 51.0% | Conversion rate of guanosine (guanosine [1]; pH = 7.0, S1:S2 = 1:5): 67.0% | Conversion rate of guanosine (guanosine [1]; pH = 7.8, S1:S2 = 1:1): 32.2% | Conversion rate of guanosine (guanosine [1]; pH = 7.8, S1:S2 = 1:2): 51.2% | Conversion rate of guanosine (guanosine [1]; pH = 7.8, S1:S2 = 1:3): 66.2% | Conversion rate of guanosine (guanosine [1]; pH = 7.8, S1:S2 = 1:5): 80.1%

CC(OC(=O)CN=[N+]=[N-])C(=O)C=O (centres unmarked) [drawing 34]
Conversion rate of guanosine (guanosine [1]; pH = 7.8, S1:S2 = 1:1): 77.5% | Conversion rate of guanosine (guanosine [1]; pH = 7.8, S1:S2 = 1:2): 92.1% | Conversion rate of guanosine (guanosine [1]; [6]): 43.6%

CC(N=[N+]=[N-])C(=O)C=O (centres unmarked) [drawing 50]
Conversion rate of guanosine (guanosine [1]; pH = 7.0, S1:S2 = 1:1): 46.7% | Conversion rate of guanosine (guanosine [1]; pH = 7.0, S1:S2 = 1:2): 79.2% | Conversion rate of guanosine (guanosine [1]; pH = 7.0, S1:S2 = 1:4): 95.3% | Conversion rate of guanosine (guanosine [1]; pH = 7.0, S1:S2 = 2:1): 22.0%
